{
  "source": "patent US9303017B2",
  "about": "“2,5-disubstituted-pyridyl nicotinic ligands, and methods of use thereof” (Georgetown University, priority 2011, dated 2016)",
  "key": {"α4β2 nAChR": {"target": "α4β2 nAChR (Rattus norvegicus (Rat), UniProt P09483+P12390)", "test": "biochemical", "assay_type": "binding", "conditions": "for pKi: read-out: Ki α4β2", "procedure": "(§1) In Vitro Binding Affinities for nAChR Subtypes. […] To determine selectivities of these compounds in binding assays among the three predominant nAChR subtypes, α3β4, α4β2 and α7, the ratios of Ki values (α3β4/α4β2 and α7/α4β2) were determined.\n(§2) Cell Lines and Cell Culture. The cell lines expressing defined rat nAChR subtypes were established previously by stably transfecting HEK 293 cells with rat nAChR subunit genes. The cell line expressing human α4β2 nAChRs, YXα4β2H1, was established recently. These cell lines were maintained in minimum essential medium (MEM) supplemented with 10% fetal bovine serum, 100 units/mL penicillin G, […] and selective antibiotics at 37° C. with 5% CO2 in a humidified incubator. Fetal bovine serum was provided by Gemini Bio-Products (Woodland, Calif.). Tissue culture medium and antibiotics were obtained from Invitrogen Corporation (Carlsbad, Calif.), unless otherwise stated.\n(§3) Briefly, cultured cells at >80% confluence were removed from their flasks (80 cm^2) with a disposable cell scraper and placed in 10 mL of 50 mM Tris.HCl buffer (pH 7.4, 4° C.). The cell suspension was centrifuged at 10,000×g for 5 min and the pellet was collected. The cell pellet was then homogenized in 10 mL buffer with a polytron homogenizer and centrifuged at 36,000 g for 10 min at 4° C. The membrane pellet was resuspended in fresh buffer, and aliquots of the membrane preparation were used for binding assays. […] Bound and free ligands were separated by vacuum filtration through Whatman GF/C filters treated with 0.5% polyethylenimine. The filter-retained radioactivity was measured by liquid scintillation counting. Specific binding was defined as the difference between total binding and nonspecific binding. Data from competition binding assays were analyzed using Prism 5 (GraphPad Software, San Diego, Calif.).\n(§4) Pharmacological Properties. We measured the in vitro binding affinities of the ligands for defined receptor subtypes (α2β2, α2β4, α3β2, α3β4, α4β2, α4β4, α6β2, α6β4, and α7) expressed in stably transfected cell lines. […] Rat forebrain homogenates were included to allow comparison between the heterologous and native α4β2 and α7 nAChRs. See Table 1 for binding affinity values (Ki) of the ligands at the three major nAChR subtypes (α3β4. α4β2 and α7)."}, "α3β2 nAChR": {"target": "α3β2 nAChR (Rattus norvegicus (Rat), UniProt P04757+P12390)", "test": "[3H]-epibatidine competition binding, α3β2", "conditions": "Table 1; mean of 3 to 5 measurements", "procedure": "as §1\nas §2, with “Tissue culture medium and antibiotics were obtained from Invitrogen Corporation (Carlsbad, Calif.), unless otherwise stated.” left out\n(§5) Briefly, cultured cells at >80% confluence were removed from their flasks (80 cm^2) with a disposable cell scraper and placed in 10 mL of 50 mM Tris.HCl buffer (pH 7.4, 4° C.). […] The filter-retained radioactivity was measured by liquid scintillation counting. […] Data from competition binding assays were analyzed using Prism 5 (GraphPad Software, San Diego, Calif.).\n(§6) Pharmacological Properties. We measured the in vitro binding affinities of the ligands for defined receptor subtypes (α2β2, α2β4, α3β2, α3β4, α4β2, α4β4, α6β2, α6β4, and α7) expressed in stably transfected cell lines. […]"}, "α2β4 nAChR": {"target": "α2β4 nAChR (Rattus norvegicus (Rat), UniProt P12389+P12392)", "test": "[3H]-epibatidine competition binding, α2β4", "conditions": "Table 1; mean of 3 to 5 measurements", "procedure": "as §1\nas §2, with “Tissue culture medium and antibiotics were obtained from Invitrogen Corporation (Carlsbad, Calif.), unless otherwise stated.” left out\nas §5, §6"}, "α3β4 nAChR": {"target": "α3β4 nAChR (Rattus norvegicus (Rat), UniProt P04757+P12392)", "test": "[3H]-epibatidine competition binding, α3β4", "procedure": "as §1, §2, §3, §4"}, "α7 nAChR": {"target": "α7 nAChR (Rattus norvegicus (Rat), UniProt Q05941)", "assay_type": "binding", "procedure": "as §1, §2, §3, §4"}, "α4β4 nAChR": {"target": "α4β4 nAChR (Rattus norvegicus (Rat), UniProt P09483+P12392)", "test": "[3H]-epibatidine competition binding, α4β4", "conditions": "Table 1; mean of 3 to 5 measurements", "procedure": "as §1\nas §2, with “Tissue culture medium and antibiotics were obtained from Invitrogen Corporation (Carlsbad, Calif.), unless otherwise stated.” left out\nas §5, §6"}, "rat α3β4 nAChRs": {"target": "rat α3β4 nAChRs (Rattus norvegicus (Rat), UniProt P04757+P12392)", "test": "86Rb+ efflux assay (activation and desensitization), α3β4", "assay_type": "cell-based", "procedure": "(§7) In Vitro Effects on nAChR Function. […] Their agonist activities were assessed by measuring stimulated ^86Rb^+ efflux from stably transfected cells, either expressing human α4β2 nAChRs or rat α3β4 receptors.\nas §2\n(§8) ^86Rb^+ Efflux Assay. Functional properties of compounds at nAChRs expressed in the transfected cells were measured using ^86Rb^+ efflux assays as described previously. In brief, cells expressing human α4β2 or rat α3β4 nAChRs were plated into 24-well plates coated with poly-D-lysine. The plated cells were grown at 37° C. for 18 to 24 hour to reach 85-95% confluence. The cells were then incubated in growth medium (0.5 mL/well) containing ^86Rb^+ (2 μCi/mL) for 4 hour at 37° C. The loading mixture was then aspirated, and the cells were washed four times with 1 mL buffer (15 mM HEPES, 140 mM NaCl, 2 mM KCl, 1 mM MgSO4, 1.8 mM CaCl2, 11 mM Glucose, pH 7.4). One mL of buffer with or without compounds to be tested was then added to each well. After incubation for 2 min, the assay buffer was collected for measurements of ^86Rb^+ released from the cells. Cells were then lysed by adding 1 mL of 100 mM NaOH to each well, and the lysate was collected for determination of the amount of ^86Rb^+ that was in the cells at the end of the efflux assay. Radioactivity of assay samples and lysates was measured by liquid scintillation counting. Total loading (cpm) was calculated as the sum of the assay sample and the lysate of each well. The amount of ^86Rb^+ efflux was expressed as a percentage of ^86Rb^+ loaded. […] For obtaining EC50 and Emax values, stimulation curves were constructed in which 8 different concentrations of a ligand were included in the assay. […] EC50, Emax and IC50(10′) values were determined by nonlinear least-squares regression analyses (GraphPad, San Diego, Calif.).\n(§9) The functional properties of the ligands were determined by ^86Rb^+ efflux assays in cells expressing α3β4 and α4β2 nAChR subtypes. The functional activity of each ligand was measured for its agonism, antagonism and desensitization ability. Agonist activity for each of the ligands was tested at eight different concentrations. […] The full concentration-effect curves generated potency (EC50) and efficacy (Emax) of each ligand. […] We tested each ligand for antagonist activity at eight concentrations. The potency (IC50(0′)) of each ligand as an antagonist was derived from the full concentration-effect curves."}, "human α4β2 nAChRs": {"target": "human α4β2 nAChRs (Homo sapiens (Human), UniProt P17787+P43681)", "test": "86Rb+ efflux assay (activation and desensitization), α4β2", "assay_type": "cell-based", "conditions": "for pIC50: desensitization", "procedure": "as §7, §2, §8, §9"}, "α2β2 nAChR": {"target": "α2β2 nAChR (Rattus norvegicus (Rat), UniProt P12389+P12390)", "test": "[3H]-epibatidine competition binding, α2β2", "conditions": "Table 1; mean of 3 to 5 measurements", "procedure": "as §1\nas §2, with “Tissue culture medium and antibiotics were obtained from Invitrogen Corporation (Carlsbad, Calif.), unless otherwise stated.” left out\nas §5, §6"}, "[1]": {"conditions": "Table 1, mean of 3 to 5 measurements"}},
  "note": "pIC50, pKi: −log10 of the molar value. Like-named read-outs stand apart in the source and are kept apart here.",
  "data": [
    {"smiles": "Cc1ncc(C#CCCCCCl)cc1OC[C@@H]1CCN1", "note": "[(S)-21, (S)-3-(azetidin-2-ylmethoxy)-5-(6-chlorohex-1-ynyl)-2-methylpyridine]", "values": [
      {"measurement": "pKi", "setting": "α4β2 nAChR; [1]", "result": 8.28},
      {"measurement": "pKi", "setting": "α4β2 nAChR; Table 3 (Example 4)", "result": 8.33},
      {"measurement": "Ki Ratio α3β4/α4β2", "setting": "α4β2 nAChR; selectivity for α4β2 over α3β4", "result": "17,000"},
      {"measurement": "Ki Ratio α7/α4β2", "setting": "α4β2 nAChR; selectivity for α4β2 over α7", "result": "13,000"},
      {"measurement": "pKi", "setting": "α3β2 nAChR", "result": 6.52},
      {"measurement": "pKi", "setting": "α2β4 nAChR", "result": 4.54},
      {"measurement": "pKi", "setting": "α3β4 nAChR; [1]", "result": 4.04},
      {"measurement": "pKi", "setting": "α3β4 nAChR; Table 3 (Example 4)", "result": 4.07},
      {"measurement": "pKi", "setting": "α7 nAChR; [1]", "result": 4.17},
      {"measurement": "pKi", "setting": "α7 nAChR; Table 3 (Example 4)", "result": 4.17},
      {"measurement": "pKi", "setting": "α4β4 nAChR", "result": 5.43},
      {"measurement": "pIC50", "setting": "rat α3β4 nAChRs; read-out: IC50(10′) α3β4", "result": 4.96},
      {"measurement": "pIC50", "setting": "rat α3β4 nAChRs; read-out: IC50(10′) α3β4 nAChRs", "result": "< 5.00"},
      {"measurement": "Emax α4β2 nAChRs", "setting": "human α4β2 nAChRs; agonist efficacy normalized to Emax of nicotine, ND = no significant stimulated efflux detected", "result": "didn't show detectable agonist activity"},
      {"measurement": "pIC50", "setting": "human α4β2 nAChRs; 10 min pre-treatment, Table 3 (Example 4), read-out: IC50(10′) α4β2", "result": 6.57},
      {"measurement": "pIC50", "setting": "human α4β2 nAChRs; 10 min pre-incubation before 100 μM nicotine, Table 2, read-out: IC50(10′) α4β2 nAChRs", "result": 6.59},
      {"measurement": "pKi", "setting": "α2β2 nAChR", "result": 8.07}
    ]}
  ]
}
